Measured values from patent US11065253B2, “Arylquinazolines” (Merck Patent GmbH, priority 2013, dated 2021).

These molecules were tested on phospho-serine 2056 DNA-PK in HCT116 cells (assay: DNA-PK phosphorylation at serine 2056 (cellular), ELISA in bleomycin-treated HCT116 cells). Settings: Homo sapiens, HCT-116, 6 h, cellular; HCT116 cells, 10 μM bleomycin, six hours; read-out: IC50 pDNA-PK.
Assay type: cell-based
In short: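 Chemiluminescent ELISA read-out; phospho-specific signal normalised to total DNA-PKcs. Cells (HCT116) exposed 6 h to test compound plus 10 μM bleomycin to induce double-strand breaks; DMSO control served as blank.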

SMILES | IC50
COc1cnc(Cl)c(C(O)c2ccc(F)c(-c3ncnc4cc(N5CCOCC5)ccc34)c2)n1 (stereo not drawn) [Example 26, (3-Chloro-6-methoxy-pyrazin-2-yl)-[4-fluoro-3-(7-morpholin-4-yl-quinazolin-4-yl)phenyl]-methanol] | < 0.5 µM
CCOc1cnnc(C(O)c2ccc(F)c(-c3ncnc4cc(N5CCOCC5)ccc34)c2)c1 (stereo not drawn) [Example 79, (5-Ethoxypyridazin-3-yl)-[4-fluoro-3-(7-morpholin-4-yl-quinazolin-4-yl)phenyl]-methanol] | 5 to 10 µM
O[C@@H](c1ccc(F)c(-c2ncnc3cc(N4CCOCC4)ccc23)c1)c1nccnc1Cl [Example 28, (S)-(3-Chloro-pyrazin-2-yl)-[4-fluoro-3-(7-morpholin-4-yl-quinazolin-4-yl)phenyl]-methanol] | 5 to 10 µM

More lines, now with the values ahead:

IC50 | SMILES
< 0.5 µM | COc1cc(Cl)nnc1C(O)c1ccc(F)c(-c2ncnc3cc(N4CCOCC4)ccc23)c1 (stereo not drawn) [Example 10, (6-Chloro-4-methoxy-pyridazin-3-yl)-[4-fluoro-3-(7-morpholin-4-yl-quinazolin-4-yl)phenyl]-methanol]
< 0.5 µM | OC(c1ccn2nccc2n1)c1cc(-c2ncnc3cc(N4CCOCC4)ccc23)c(F)cc1Cl (stereo not drawn) [Example 39, [2-Chloro-4-fluoro-5-(7-morpholin-4-yl-quinazolin-4-yl)phenyl]-pyrazolo[1,5-a]-pyrimidin-5-ylmethanol]
< 0.5 µM | OC(c1ccc(Cl)nn1)c1cc(-c2ncnc3cc(N4CCOCC4)ccc23)c(F)cc1Cl (stereo not drawn) [Example 41, [2-Chloro-4-fluoro-5-(7-morpholin-4-yl-quinazolin-4-yl)phenyl]-(6-chloro-pyridazin-3-yl)methanol]
0.5 to 5 µM | COc1cc(Cl)nnc1C(O)c1cc(-c2ncnc3cc(N4CCOCC4)ccc23)c(F)cc1Cl (stereo not drawn) [Example 8, [2-Chloro-4-fluoro-5-(7-morpholin-4-yl-quinazolin-4-yl)phenyl]-(6-chloro-4-methoxy-pyridazin-3-yl)methanol]
< 0.5 µM | COc1cnc(C(O)c2ccc(F)c(-c3ncnc4cc(N5CCOCC5)ccc34)c2)c(Cl)c1 (stereo not drawn) [Example 31, (3-Chloro-5-methoxy-pyridin-2-yl)-[4-fluoro-3-(7-morpholin-4-yl-quinazolin-4-yl)phenyl]-methanol]

Same assay, conditions: Homo sapiens, HCT-116, cellular DNA-PK phosphorylation at serine 2056, HCT116 cells; read-out: IC50 pDNA-PK

IC50 | SMILES
0.5 to 5 µM | Cc1nccnc1C(O)c1cc(-c2ncnc3cc(N4CCOCC4)ccc23)ccc1Cl (stereo not drawn) [Example 426, [2-Chloro-5-(7-morpholin-4-yl-quinazolin-4-yl)-phenyl]-(3-methyl-pyrazin-2-yl)-methanol (Ena 2)]
< 0.5 µM | OC(c1ccc(F)c(-c2ncnc3cc(N4CCOCC4)ccc23)c1)c1ncnc2sccc12 (stereo not drawn) [Example 437, [4-Fluoro-3-(7-morpholin-4-yl-quinazolin-4-yl)-phenyl]thieno[2,3-d}-pyrimidin-4-yl-methanol]
< 0.5 µM | OC(c1cc(-c2ncnc3cc(N4CCOCC4)ccc23)ccc1Cl)c1ncnc2sccc12 (stereo not drawn) [Example 430, [2-Chloro-5-(7-morpholin-4-yl-quinazolin-4-yl)-phenyl]thieno[2,3-d}-pyrimidin-4-yl-methanol]
< 0.5 µM | COc1cnc(C(O)c2ccc(F)c(-c3ncnc4cc(N5CCOCC5)ccc34)c2)c(Br)c1 (stereo not drawn) [Example 473, (3-bromo-5-methoxy-pyridin-2-yl)-[4-fluoro-3-(7-morpholin-4-yl-quinazolin-4-yl)-phenyl]methanol]
< 0.5 µM | Cn1c(C(O)c2cc(-c3ncnc4cc(N5CCOCC5)ccc34)ccc2Cl)cccc1=O (stereo not drawn) [Example 400, 6-{[2-Chloro-5-(7-morpholin-4-yl-quinazolin-4-yl)-phenyl]hydroxy-methyl}-1-methyl-1H-pyridin-2-one]
0.5 to 5 µM | Cn1ncc2c(C(O)c3cc(-c4ncnc5cc(N6CCOCC6)ccc45)c(F)cc3F)ncnc21 (stereo not drawn) [Example 403, [2,4-Difluoro-5-(7-morpholin-4-yl-quinazolin-4-yl)-phenyl]-(1-methyl-1H-pyrazolo[3,4-d}-pyrimidin-4-yl)-methanol]

Same assay, conditions: Homo sapiens, HCT-116, phospho-serine 2056 DNA-PK, bleomycin-treated HCT116 cells; class symbols A-D; read-out: IC50 pDNA-PK

IC50 | SMILES
0.5 to 5 µM | Nc1nccnc1C(O)c1cc(-c2ncnc3cc(N4CCOCC4)ccc23)c(F)cc1Cl (stereo not drawn) [Example 117, (3-Amino-pyrazin-2-yl)-[2-chloro-4-fluoro-5-(7-morpholin-4-yl-quinazolin-4-yl)-phenyl]methanol]
0.5 to 5 µM | OCc1csc(C(O)c2cc(-c3ncnc4cc(N5CCOCC5)ccc34)c(F)cc2Cl)n1 (stereo not drawn) [Example 142, [2-Chloro-4-fluoro-5-(7-morpholin-4-yl-quinazolin-4-yl)-phenyl]-(4-hydroxymethyl-thiazol-2-yl)-methanol]
0.5 to 5 µM | OCc1csc([C@@H](O)c2cc(-c3ncnc4cc(N5CCOCC5)ccc34)c(F)cc2Cl)n1 [Example 185, (S)-[2-Chloro-4-fluoro-5-(7-morpholin-4-yl-quinazolin-4-yl)-phenyl]-(4-hydroxymethyl-thiazol-2-yl)-methanol]
0.5 to 5 µM | COc1nnc(C(O)c2cc(-c3ncnc4cc(N5CCOCC5)ccc34)c(F)cc2Cl)cc1C (stereo not drawn) [Example 110, [2-Chloro-4-fluoro-5-(7-morpholin-4-yl-quinazolin-4-yl)-phenyl]-(6-methoxy-5-methylpyridazin-3-yl)methanol]

Same assay, conditions: Homo sapiens, HCT-116, phospho-serine 2056 DNA-PK, bleomycin-treated HCT116 cells; read-out: IC50 pDNA-PK

IC50 | SMILES
0.5 to 5 µM | NC(=O)C(c1cc(-c2ncnc3cc(N4CCOCC4)ccc23)c(F)cc1Cl)c1ncccc1Cl (stereo not drawn) [Example 289, 2-[2-Chloro-4-fluoro-5-(7-morpholin-4-yl-quinazolin-4-yl)-phenyl]-2-(3-chloro-pyridin-2-yl)-acetamide]
5 to 10 µM | NC(=O)C(c1ccc(F)c(-c2ncnc3cc(N4CCOCC4)ccc23)c1)c1ncccc1Cl (stereo not drawn) [Example 313, 2-(3-Chloro-pyridin-2-yl)-2-[4-fluoro-3-(7-morpholin-4-yl-quinazolin-4-yl)-phenyl]acetamide]
10 to 30 µM | COC(c1ccc(F)c(-c2ncnc3cc(N4CCOCC4)ccc23)c1)c1nccnc1C (stereo not drawn) [Example 353, 4-{2-Fluoro-5-[methoxy-(3-methyl-pyrazin-2-yl)methyl]-phenyl}-7-morpholin-4-ylquinazoline (Ena 2)]
0.5 to 5 µM | O=c1[nH]nc(C(O)c2ccc(F)c(-c3ncnc4cc(N5CCOCC5)ccc34)c2)c2ccsc12 (stereo not drawn) [Example 338, 4-[[4-Fluoro-3-(7-morpholino-quinazolin-4-yl)-phenyl]hydroxy-methyl]-6H-thieno[2,3-d}-pyridazin-7-one]
5 to 10 µM | Cc1nccnc1/C(C(=O)O)=C1/C=CC(=O)C(c2ncnc3cc(N4CCOCC4)ccc23)=C1 [Example 331, (3-methyl-pyrazin-2-yl)-[3-(7-morpholin-4-ylquinazolin-4-yl)-4-oxocyclohexa-2,5-dien-(E)-ylidene]-acetic acid]
0.5 to 5 µM | NC(=O)C(c1ccc2nccn2n1)c1cc(-c2ncnc3cc(N4CCOCC4)ccc23)c(F)cc1Cl (stereo not drawn) [Example 323, 2-[2-Chloro-4-fluoro-5-(7-morpholin-4-yl-quinazolin-4-yl)-phenyl]-2-imidazo-[1,2-b]pyridazin-6-yl-acetamide]
5 to 10 µM | NC(=O)C(c1ccc(F)c(-c2ncnc3cc(N4CCOCC4)ccc23)c1)c1nnc(Cl)c2sccc12 (stereo not drawn) [Example 291, 2-(7-Chlorothieno-[2,3-d}pyridazin-4-yl)-2-[4-fluoro-3-(7-morpholin-4-yl-quinazolin-4-yl)-phenyl]acetamide]
10 to 30 µM | COc1ccc(C(C(N)=O)c2ccc(F)c(-c3ncnc4cc(N5CCOCC5)ccc34)c2)nn1 (stereo not drawn) [Example 308, 2-[4-Fluoro-3-(7-morpholin-4-yl-quinazolin-4-yl)-phenyl]-2-(6-methoxypyridazin-3-yl)acetamide]
10 to 30 µM | Cc1nccnc1[C@@H](O)c1ccc(F)c(-c2ncnc3cc(N4CCOCC4)cnc23)c1 [Example 233, (S)-[4-Fluoro-3-(7-morpholin-4-yl-pyrido[3,2-d}-pyrimidin-4-yl)-phenyl]-(3-methyl-pyrazin-2-yl)-methanol]
10 to 30 µM | NC(=O)C(c1cncc(Cl)c1)c1ccc(F)c(-c2ncnc3cc(N4CCOCC4)ccc23)c1 (stereo not drawn) [Example 297, 2-(5-Chloro-pyridin-3-yl)-2-[4-fluoro-3-(7-morpholin-4-yl-quinazolin-4-yl)-phenyl]acetamide]
5 to 10 µM | Cc1nccnc1C(C(N)=O)c1cc(-c2ncnc3cc(N4CCOCC4)ccc23)ccc1Cl (stereo not drawn) [Example 303, 2-[2-Chloro-5-(7-morpholin-4-yl-quinazolin-4-yl)-phenyl]-2-(3-methyl-pyrazin-2-yl)-acetamide]

Same assay, conditions: cellular DNA-PK phosphorylation at serine 2056, HCT116 cells; read-out: IC50 pDNA-PK

IC50 | SMILES
0.5 to 5 µM | COc1cncnc1C(O)c1cc(-c2ncnc3cc(N4CCOCC4)ccc23)ccc1Cl (stereo not drawn) [Example 409, [2-Chloro-5-(7-morpholin-4-yl-quinazolin-4-yl)-phenyl]-(5-methoxy-pyrimidin-4-yl)-methanol (Ena 1)]
0.5 to 5 µM | COc1nccnc1[C@@H](O)c1cc(-c2ncnc3cc(N4CCOCC4)ccc23)ccc1Cl [Example 411, (S)-[2-Chloro-5-(7-morpholin-4-yl-quinazolin-4-yl)-phenyl]-(3-methoxy-pyrazin-2-yl)-methanol (Ena 1)]

Same assay, conditions: cellular; HCT116 cells, 10 μM bleomycin, six hours; read-out: IC50 pDNA-PK

IC50 | SMILES
0.5 to 5 µM | OC(c1ccc2nccn2n1)c1cc(-c2ncnc3cc(N4CCOCC4)ccc23)c(F)cc1Cl (stereo not drawn) [Example 63, [2-Chloro-4-fluoro-5-(7-morpholin-4-yl-quinazolin-4-yl)phenyl]-imidazo[1,2-b]pyridazin-6-ylmethanol]

Same assay, conditions: phospho-serine 2056 DNA-PK, bleomycin-treated HCT116 cells; read-out: IC50 pDNA-PK

SMILES | IC50
COc1ccc(C(C(N)=O)c2cc(-c3ncnc4cc(N5CCOCC5)ccc34)c(F)cc2Cl)nn1 (stereo not drawn) [Example 325, 2-[2-Chloro-4-fluoro-5-(7-morpholin-4-yl-quinazolin-4-yl)-phenyl]-2-(6-methoxypyridazin-3-yl)acetamide] | 10 to 30 µM
